From patent publication US10792301B2, “Therapeutic polysaccharide midi-GAGR and related materials and methods” (priority 2015, dated 2020)

Tested on: phosphorylated CREB in differentiated PC12 cells
Experiment: Nuclear p-CREB immunostaining in PC12 cells
Format: cell-based
Details: 1 μM, 24 h
Protocol: Differentiated PC12 cells and mouse embryonic cortical neurons (E17, DIV14) were treated with mock, dextran, alginate, HA-GAGR or midi-GAGR (1 μM) for 24 h and fixed in 3.7% paraformaldehyde. The fixed cells and neurons were immunostained with antibodies against α-tubulin and phosopho-CREB (p-CREB) along with DAPI (nucleus).

dextran
increase of the levels of nuclear p-CREB: not significantly increased
